Molecules are shown by their SMILES.

One test relates to B16. In words: The compound was tested for cytotoxicity against B16 melanoma cells. The class given is functional. To be noted: Mus musculus, read-out: ED50 (the source's name).
Test [1] in a line: Effective dose required to promote microtubule assembly at 10 uM tubulin concentration. In kind it is functional.

As for `CC(=O)O[C@H]1C(=O)[C@@]2(C)[C@H]([C@H](OC(=O)c3ccccc3)[C@]3(O)C[C@H](OC(=O)[C@H](O)[C@@H](NC(=O)c4ccccc4)c4ccccc4)C(C)=C1C3(C)C)[C@]1(OC(C)=O)CO[C@@H]1C[C@@H]2O` [PACLITAXEL], the EC50 in the test on B16 was 28 nM. The compound further came in with an ED50 in test [1] of 700 nM.

With `CC(=O)O[C@H]1C(=O)[C@@]2(C)[C@H]([C@H](OC(=O)c3ccccc3)[C@]3(O)C[C@H](OC(=O)[C@H](O)[C@@H](NC(=O)c4ccccc4)c4ccc(Cl)cc4)C(C)=C1C3(C)C)[C@]1(OC(C)=O)CO[C@@H]1C[C@@H]2O`, the EC50 in the test with B16 amounted to 61 nM. In addition, the ED50 in test [1] was 1300 nM.

`CC(=O)O[C@H]1C(=O)[C@]2(C)[C@@H](O)CC3OC[C@@]3(OC(C)=O)[C@H]2[C@H](OC(=O)c2ccccc2)[C@]2(O)C[C@H](OC(=O)[C@H](O)[C@@H](NC(=O)c3ccc(Cl)cc3)c3ccccc3)C(C)=C1C2(C)C` (stereo partly specified): the EC50 in the test with B16 came out at 43 nM. Further, the ED50 in test [1] was found to be 1700 nM.
